Laboratory results taken from ChEMBL document CHEMBL4406823 (Eur J Med Chem, 2019).
The source made the active and inactive calls. The calls are words filed in the database; no cut-off is given here.

Columns and labels:
MDA-MB-231 [1] = test: Antiproliferative activity against human MDA-MB-231 cells assessed as inhibition of cell proliferation incubated for 72 hrs by MTT assay; type: functional, cell-based; details: MDA-MB-231, 72 h
HL-60 = test: Antiproliferative activity against human HL60 cells assessed as inhibition of cell proliferation incubated for 72 hrs by MTT assay; type: functional, cell-based; details: HL-60, 72 h
SEM cells = test: Antiproliferative activity against human SEM cells assessed as inhibition of cell proliferation incubated for 72 hrs by MTT assay; type: functional, cell-based
Tubulin = Tubulin (Bos taurus, UniProt Q6B856+Q862L2+Q862F3); test: Inhibition of bovine brain tubulin assembly using GTP as substrate incubated for 20 mins by spectrophotometric method
Tubulin (Bos taurus) [2] = molecular target: T1, Tubulin (Bos taurus) (UniProt Q6B856+Q862L2+Q862F3); test: Displacement of [3H]-colchicine from bovine brain tubulin at 5 uM incubated for 1 hr by relative to control
Tubulin (Bos taurus) [3] = molecular target: T1, Tubulin (Bos taurus); test: Displacement of [3H]-colchicine from bovine brain tubulin at 0.5 uM incubated for 1 hr by relative to control
HeLa = test: cells; details: Homo sapiens, 72 h
Description: Antiproliferative activity against human HeLa cells assessed as inhibition of cell proliferation incubated for 72 hrs by MTT assay

HT-29 = test: cells; details: Homo sapiens, HT-29, 72 h
Description: Antiproliferative activity against human HT-29 cells assessed as inhibition of cell proliferation incubated for 72 hrs by MTT assay

MCF7 = test: cells; details: Homo sapiens, MCF7, 72 h
Description: Antiproliferative activity against human MCF7 cells assessed as inhibition of cell proliferation incubated for 72 hrs by MTT assay

E0771 [4] = test: Antitumour activity against mouse E0771 cells allografted in C57BL/6 mouse assessed as reduction in tumor mass at 30 mg/kg, ip administrated every other day by caliper method; type: functional, organism-based
[5] = Cytotoxicity against human astrocytes assessed as reduction in cell viability incubated for 72 hrs by MTT assay; type: cell-based, Astrocyte
CCRF-CEM = test: Antiproliferative activity against human CEM cells assessed as inhibition of cell growth incubated for 72 hrs by MTT assay; type: functional
[6] = Antiproliferative activity against human CEM/VBL100 cells overexpressing P-gp assessed as inhibition of cell growth incubated for 72 hrs by MTT assay; type: functional; details: CEM/VBL100, 72 h
[7] = Cytotoxicity against human quiescent PBL assessed as reduction in cell viability incubated for 72 hrs by MTT assay; type: cell-based
[8] = Cytotoxicity against PHA-stimulated human PBL assessed as reduction in cell viability incubated for 72 hrs by MTT assay; type: cell-based
MDA-MB-231 [9] = test: Induction of cell cycle arrest in human MDA-MB-231 cells assessed as increase in accumulation of cells at G2/M phase at 10 nM incubated for 24 hrs by PI staining based flow cytometric analysis relative to control; type: functional
MDA-MB-231 [10] = test: Induction of cell cycle arrest in human MDA-MB-231 cells assessed as reduction in accumulation of cells at G1 phase at 10 to 100 nM incubated for 24 hrs by PI staining based flow cytometric analysis; type: functional
MDA-MB-231 [11] = test: Induction of cell cycle arrest in human MDA-MB-231 cells assessed as reduction in accumulation of cells at S phase at 10 to 100 nM incubated for 24 hrs by PI staining based flow cytometric analysis; type: functional
MDA-MB-231 [12] = test: Induction of cell cycle arrest in human MDA-MB-231 cells assessed as increase in p21 protein expression level at 50 to 100 nM incubated for 24 to 48 hrs by western blot analysis; type: functional, cell-based
MDA-MB-231 [13] = test: Induction of cell cycle arrest in human MDA-MB-231 cells assessed as reduction in cdc25c protein expression at 50 nM incubated for 24 to 48 hrs by western blot analysis; type: functional, cell-based
MDA-MB-231 [14] = test: Induction of cell cycle arrest in human MDA-MB-231 cells assessed as effect on cyclin B protein expression at 50 to 100 nM incubated for 24 to 48 hrs by western blot analysis; type: functional, cell-based
MDA-MB-231 [15] = test: Induction of apoptosis in human MDA-MB-231 cells at 50 nM incubated for 24 to 48 hrs by annexin V-FITC/propidium iodide staining-based flow cytometry analysis; type: functional, cell-based
MDA-MB-231 [16] = test: Induction of mitochondrial membrane depolarization in human MDA-MB-231 cells at 50 to 100 nM incubated for 24 to 48 hrs by JC1 staining based flow cytometric method; type: functional, cell-based
MDA-MB-231 [17] = test: Induction of ROS generation in human MDA-MB-231 cells at 50 to 100 nM incubated for 24 to 48 hrs by H2-DCFDA staining based flow cytometric method; type: functional, cell-based
MDA-MB-231 [18] = test: Induction of apoptosis in human MDA-MB-231 cells assessed as activation of PARP cleavage at 50 to 100 nM incubated for 48 hrs by Western blot analysis; type: functional, cell-based
MDA-MB-231 [19] = test: Induction of apoptosis in human MDA-MB-231 cells assessed as reduction in Mcl1 protein expression at 50 nM incubated for 24 hrs by Western blot analysis; type: functional, cell-based
MDA-MB-231 [20] = test: Induction of apoptosis in human MDA-MB-231 cells assessed as reduction in XIAP protein expression at 50 to 100 nM incubated for 24 to 48 hrs by Western blot analysis; type: functional, cell-based
MDA-MB-231 [21] = test: Inhibition of cell migration in human MDA-MB-231 cells at 5 nM incubated for 24 to 48 hrs by wound healing assay; type: functional, cell-based
E0771 [22] = test: Antitumour activity against mouse E0771 cells allografted in ip dosed C57BL/6 mouse assessed as reduction in tumor burden administrated every other day by caliper method; type: functional, organism-based
E0771 [23] = test: Antitumour activity against mouse E0771 cells allografted in C57BL/6 mouse assessed as reduction in tumor burden at 5.0 mg/kg, ip administrated every other day by caliper method; type: functional, organism-based
E0771 [24] = test: Antitumour activity against mouse E0771 cells allografted in C57BL/6 mouse assessed as reduction in tumor mass at 5.0 to 15 mg/kg, ip administrated for every other day by caliper method; type: functional, organism-based
[25] = Toxicity in C57BL/6 mouse allografted with mouse E0771 cells assessed as change in body weight at 15 mg/kg, ip administered every other day; type: organism-based; details: in vivo
MDA-MB-231 [26] = test: Induction of cell cycle arrest in human MDA-MB-231 cells assessed as reduction in cdc2 dephosphorylation level at 50 to 100 nM incubated for 24 to 48 hrs by western blot analysis
MDA-MB-231 [27] = test: Induction of cell cycle arrest in human MDA-MB-231 cells assessed as increase in accumulation of cells at G2/M phase at 100 nM incubated for 24 hrs by PI staining based flow cytometric analysis; type: functional
MDA-MB-231 [28] = test: Induction of apoptosis in human MDA-MB-231 cells assessed as reduction in Mcl1 protein expression at 50 to 100 nM incubated for 48 hrs by Western blot analysis; type: functional, cell-based

COc1cc(-c2n[nH]cc2-c2ccc(C)c(F)c2)cc(OC)c1OC
IC50 (MDA-MB-231 [1]): 481 nM
IC50 (HL-60): 31 nM
IC50 (SEM cells): 23.5 nM
IC50 (Tubulin): 480 nM
inhibition (Tubulin (Bos taurus) [2]): 91%
inhibition (Tubulin (Bos taurus) [3]): 49%
IC50 (HeLa): 26.2 nM
IC50 (HT-29): 67.4 nM
IC50 (MCF7): 1700 nM

COc1ccc(/C=C\c2cc(OC)c(OC)c(OC)c2)cc1OP(=O)(O)O
inhibition (E0771 [4]): Active

CCOc1ccc(-c2n[nH]cc2-c2cc(OC)c(OC)c(OC)c2)cc1
GI50 at 72 h [5]: > 10000 nM
GI50 (CCRF-CEM): 0.35 nM
GI50 [6]: 0.52 nM
IC50 (MDA-MB-231 [1]): 0.7 nM
IC50 (HL-60): 0.25 nM
IC50 (SEM cells): 0.06 nM
GI50 at 72 h [7]: > 10000 nM
GI50 at 72 h [8]: > 10000 nM
IC50 (Tubulin): 350 nM
inhibition (Tubulin (Bos taurus) [2]): 96%
inhibition (Tubulin (Bos taurus) [3]): 90%
Activity (MDA-MB-231 [9]): 60%
Activity (MDA-MB-231 [10]): Active
Activity (MDA-MB-231 [11]): Active
Activity (MDA-MB-231 [12]): Active
Activity (MDA-MB-231 [13]): Active
Activity (MDA-MB-231 [14]): inactive
Activity (MDA-MB-231 [15]): Active
Activity (MDA-MB-231 [16]): Active
Activity (MDA-MB-231 [17]): Active
Activity (MDA-MB-231 [18]): Active
Activity (MDA-MB-231 [19]): Active
Activity (MDA-MB-231 [20]): Active
inhibition (MDA-MB-231 [21]): Active
inhibition (E0771 [22]): Dose-dependent effect
inhibition (E0771 [23]): Active
inhibition (E0771 [24]): Active
Activity [25]: Non-Toxic
IC50 (HeLa): 0.07 nM
IC50 (HT-29): 0.06 nM
IC50 (MCF7): 0.21 nM
Activity (MDA-MB-231 [26]): Active

CCOc1ccc(-c2c[nH]nc2-c2cc(OC)c(OC)c(OC)c2)cc1
GI50 at 72 h [5]: > 10000 nM
GI50 (CCRF-CEM): 0.4 nM
GI50 [6]: 1.9 nM
IC50 (MDA-MB-231 [1]): 4.5 nM
IC50 (HL-60): 3.2 nM
IC50 (SEM cells): 0.2 nM
GI50 at 72 h [7]: 8700 nM
GI50 at 72 h [8]: > 10000 nM
IC50 (Tubulin): 360 nM
inhibition (Tubulin (Bos taurus) [2]): 95%
inhibition (Tubulin (Bos taurus) [3]): 69%
Activity (MDA-MB-231 [27]): Active
Activity (MDA-MB-231 [10]): Active
Activity (MDA-MB-231 [11]): Active
Activity (MDA-MB-231 [12]): Active
Activity (MDA-MB-231 [14]): inactive
Activity (MDA-MB-231 [15]): Active
Activity (MDA-MB-231 [16]): Active
Activity (MDA-MB-231 [17]): Active
Activity (MDA-MB-231 [18]): Active
Activity (MDA-MB-231 [28]): Active
Activity (MDA-MB-231 [20]): Active
IC50 (HeLa): 0.05 nM
IC50 (HT-29): 0.3 nM
IC50 (MCF7): 1.5 nM

COc1cc(-c2n[nH]cc2-c2cc3ccccc3s2)cc(OC)c1OC
IC50 (MDA-MB-231 [1]): 2.5 nM
IC50 (HL-60): 2.3 nM
IC50 (SEM cells): 0.5 nM
IC50 (Tubulin): 300 nM
inhibition (Tubulin (Bos taurus) [2]): 93%
inhibition (Tubulin (Bos taurus) [3]): 69%
IC50 (HeLa): 1.7 nM
IC50 (HT-29): 7.4 nM
IC50 (MCF7): 1.4 nM

COc1ccc(-c2c[nH]nc2-c2cc(OC)c(OC)c(OC)c2)cc1F
IC50 (MDA-MB-231 [1]): 327 nM
IC50 (HL-60): 5.1 nM
IC50 (SEM cells): 2.7 nM
IC50 (Tubulin): 420 nM
inhibition (Tubulin (Bos taurus) [2]): 93%
inhibition (Tubulin (Bos taurus) [3]): 55%
IC50 (HeLa): 7.3 nM
IC50 (HT-29): 15.8 nM
IC50 (MCF7): 805 nM

COc1ccc(-c2n[nH]cc2-c2cc(OC)c(OC)c(OC)c2)cc1
IC50 (MDA-MB-231 [1]): 0.9 nM
IC50 (HL-60): 2.1 nM
IC50 (SEM cells): 0.4 nM
IC50 (Tubulin): 340 nM
inhibition (Tubulin (Bos taurus) [2]): 93%
inhibition (Tubulin (Bos taurus) [3]): 79%
IC50 (HeLa): 1.9 nM
IC50 (HT-29): 0.8 nM
IC50 (MCF7): 2.6 nM

COc1cc(-c2c[nH]nc2-c2ccc(C)cc2)cc(OC)c1OC
IC50 (MDA-MB-231 [1]): 262 nM
IC50 (HL-60): 31.4 nM
IC50 (SEM cells): 14.7 nM
IC50 (Tubulin): 570 nM
inhibition (Tubulin (Bos taurus) [2]): 86%
IC50 (HeLa): 25.2 nM
IC50 (HT-29): 44.4 nM
IC50 (MCF7): 700 nM

COc1cc(-c2n[nH]cc2-c2ccc3ccccc3c2)cc(OC)c1OC
IC50 (MDA-MB-231 [1]): 28.4 nM
IC50 (HL-60): 9.4 nM
IC50 (SEM cells): 3.3 nM
IC50 (Tubulin): 410 nM
inhibition (Tubulin (Bos taurus) [2]): 91%
inhibition (Tubulin (Bos taurus) [3]): 68%
IC50 (HeLa): 6.6 nM
IC50 (HT-29): 8.1 nM
IC50 (MCF7): 21.4 nM

CCc1ccc(-c2c[nH]nc2-c2cc(OC)c(OC)c(OC)c2)cc1
IC50 (MDA-MB-231 [1]): 3270 nM
IC50 (HL-60): 23.3 nM
IC50 (SEM cells): 18.7 nM
IC50 (Tubulin): 520 nM
inhibition (Tubulin (Bos taurus) [2]): 85%
IC50 (HeLa): 33.5 nM
IC50 (HT-29): 41.3 nM
IC50 (MCF7): > 10000 nM

COc1ccc(-c2c[nH]nc2-c2cc(OC)c(OC)c(OC)c2)cc1C
IC50 (MDA-MB-231 [1]): 2680 nM
IC50 (HL-60): 17.7 nM
IC50 (SEM cells): 17.2 nM
IC50 (Tubulin): 440 nM
inhibition (Tubulin (Bos taurus) [2]): 81%
IC50 (HeLa): 32.9 nM
IC50 (HT-29): 37.3 nM
IC50 (MCF7): > 10000 nM

CCOc1ccc(-c2c[nH]nc2-c2cc(OC)c(OC)c(OC)c2)cc1Cl
IC50 (MDA-MB-231 [1]): 6.9 nM
IC50 (HL-60): 1.5 nM
IC50 (SEM cells): 1.4 nM
IC50 (Tubulin): 390 nM
inhibition (Tubulin (Bos taurus) [2]): 90%
inhibition (Tubulin (Bos taurus) [3]): 62%
IC50 (HeLa): 1.6 nM
IC50 (HT-29): 4.2 nM
IC50 (MCF7): 4.5 nM
